Results from US20260191933A1, “PHARMACEUTICAL COMBINATIONS AND USES THEREOF” (The University of Melbourne, priority 2022, published 2026).

What was measured:
[1] = system: HFHS plus low dose STZ mice; test: I.C.V. fluorosamine in late-stage type-2 diabetes model (HFHS plus low dose streptozotocin); type: in vivo, C57BL/6J mice; settings: I.C.V. for 14 days
Protocol: Mice were maintained on a 12 h light-dark cycle in a temperature-controlled high-barrier facility with free access to food and water per NHMRC Australian Code of Practice for the Care and Use of Animals. C57BL/6J and Balb/C mice were sourced from the Animal Resources Centre, Australian, whereas Agrp-IRES-Cre (Strain #:012899), db/db (strain #: 000697), Npy-GFP (Strain #:006417), Pomc-GFP (Strain #:009593), LSL-Cas9 (Strain #:028551), NZO (Strain #:002105) mice were sourced from Jackson Laboratories, USA. […]
Metabolic measurements were undertaken in the Melbourne Mouse Metabolic Phenotyping Platform (The University of Melbourne, Australia). […] The areas under glucose excursion curves were determined and expressed as mmol/l×min. Fasted (12 h fast) plasma insulin or glucose levels were determined using a Rat/Mouse Insulin ELISA (EZRMI-13K, Merck Millipore, CA) or an Accu-Check glucometer respectively. The HOMA-IR was calculated using the equation [(glucose×insulin)/405]. Adiposity was measured using TD-NMR minispec (Bruker Optics Inc., Billerica, MA). […]

[2] = system: 12-week-HFHS-diet-fed obese mice; test: Intranasal PZ6005 in obese mice: I.P. GTT, ITT, fasting glucose; type: in vivo, C57BL/6J mice
Protocol: (§1) Metabolic measurements were undertaken in the Melbourne Mouse Metabolic Phenotyping Platform (The University of Melbourne, Australia). Glucose tolerance tests were performed on 6 h fasted conscious mice respectively by injecting D-glucose (2 mg/g of lean body mass and 1 mg/g lean mass for db/db and HFHS+STZ mice) into the peritoneal cavity and measuring glucose in tail blood immediately before and at 15, 30, 45, 60, 90 and 120 min after injection using an Accu-Check glucometer (Roche, Germany). The areas under glucose excursion curves were determined and expressed as mmol/l×min. Fasted (12 h fast) plasma insulin or glucose levels were determined using a Rat/Mouse Insulin ELISA (EZRMI-13K, Merck Millipore, CA) or an Accu-Check glucometer respectively. The HOMA-IR was calculated using the equation [(glucose×insulin)/405]. Adiposity was measured using TD-NMR minispec (Bruker Optics Inc., Billerica, MA).

[3] = system: insulin receptor signalling within the ARC (pAKT); test: Intranasal PZ6005: ARC pAKT +ve. cells after insulin; type: in vivo, C57BL/6J mice; settings: both doses, 14-day intranasal administration
Protocol: Mice were injected intraperitoneally with vehicle (PBS) or insulin (3 mU/g, i.p., Actrapid, Nova Nordisk, Denmark) and mice were transcardially perfused (as described above) 15 min with 10% neutral buffered formalin. The brains were post-fixed for 16 h on a rocking platform at RT and then kept for two days in 30% sucrose in PBS to cryoprotect the tissue, before freezing on dry ice. 30 μm sections were cut in the coronal plane throughout the entire rostral-caudal extent of the hypothalamus. Sections were pre-treated for 10 mins in 0.3% glycine, washed in PBS-T and incubated for 10 min in 0.03% SDS. Sections were then blocked in 5% blocking buffer for 1 h at RT and incubated for 48 h with rabbit anti-p-AKT (Ser-473) (1:300; #4060, Cell Signaling Technology, Beverly, MA) in 1% blocking buffer. Sections were then incubated in 5% blocking buffer containing either goat anti-rabbit Alexa Fluor 647 (ab150083, Abcam, Cambridge, UK) or biotinylated goat anti-rabbit (BA-1000, Vector Laboratories, CA, no sodium azide in blocking buffer). […]

diet-induced obese mice [4] = test: I.C.V. PZ6005 and/or S.C. liraglutide, 28 days: body weight, adiposity, food intake, energy expenditure; type: in vivo, C57BL/6j mice
Protocol: as §1
Mice were acclimated for 24 h and then monitored for 48 h in an environmentally controlled Promethion Metabolic Screening System (Sable Systems International, NV) fitted with indirect open circuit calorimetry, food consumption and activity monitors to measure activity, caloric intake and energy expenditure. Respiratory quotients were calculated as the ratio of CO2 production over O2 consumption respiratory exchange ratio and energy expenditure was calculated using the Weir equation (Kcal h−1=60×(0.003941×VO2+0.001106×VCO2). To account for difference in body mass/composition energy expenditure was analysed and adjusted using ANCOVA using scripts available at the National Mouse Metabolic Phenotyping Centers (MMPC, Nashville, TN, USA) Energy Expenditure Analysis Page (https://www.mmpc.org/shared/regression.aspx).

diet-induced obese mice [5] = test: I.C.V. PZ6005 and/or S.C. liraglutide: I.P. GTT; type: in vivo, C57BL/6j mice; settings: day 14; 6 hours fasted; compared with the control treatment
Protocol: as §1

With `CC(=O)NC1C(OC(C)=O)OC(COC(C)=O)[C@@H](F)C1OC(C)=O` (stereo partly shown) [PZ6005, per-O-acetylated-4-F-N-acetylglucosamine] the “remission of metabolic disease (daily blood glucose, glucose tolerance)” value [1] was “promote the remission of metabolic disease”, the “fasting (12 hrs) glucose level” value ([2]; both doses of intranasal treatment) was “Reduction” and the “insulin sensitivity (I.P. ITT)” value ([2]; intranasal 1 or 5 mg/animal/day, 4 hrs fasting) was “enhanced insulin sensitivity”. The “glucose tolerance (I.P. GTT)” value ([2]; intranasal 1 or 5 mg/animal/day, 6 hrs fasting, vs control littermates) was “better glucose tolerance”, the “ARC pAKT +ve. cells” value [3] was “robust increase” and the “mass of ingWAT, epiWAT and the liver” value (diet-induced obese mice [4]; 28-day treatment, compared with control littermates) was “lower mass”. For the same compound, the “difference in fat mass between the mid- and post-treatment” value (diet-induced obese mice [4]; 14 days after last PZ6005 dose) was “no significant difference”, the “energy expenditure and oxygen consumption” value (diet-induced obese mice [4]; Day 8-Day 11 of the treatment, day and night) was “consumed more energy” and the “mean percentage change in weight” value (diet-induced obese mice [4]; day 28, PZ6005 100 μg/animal I.C.V. every other day first 14 days, liraglutide 200 μg/kg/day S.C. 28 days) was −13.02±1.15%. The “glucose excursion (I.P. GTT)” value (diet-induced obese mice [5]) was “reduced glucose excursion”.
